Results taken from patent US20250290915A1, “METHOD FOR PREDICTING RESPONSIVENESS TO THERAPY” (CANCERTAIN LIMITED, priority 2022, published 2025).

Experiments:
Type in all cases: cell-based, human
[1] = test system: Circulating Tumour Cells (CTCs) from a patient with rectal cancer (anorectal carcinoma with secondary lung cancer); assay: Drug response score assay on CTCs (with CD45+ cells for immunotherapy) from blood, Example 3
Protocol: (§1) CD45^+ cells and circulating tumour cells (CTCs) were isolated from a blood sample provided by each subject.
(§2) CD45 separation was performed by adding human CD45 microbeads (50 μl/ml blood), incubating for 15 minutes at 4° C. and then processing using an AutoMACS machine. This separates the blood sample into CD45^+ and CD45^−cells in 2 separate falcons. The falcon tubes are then centrifuged at 1200 rpm for 5 minutes.
(§3) The supernatant was removed from the CD45^+falcon tube, and the cells resuspended in DMEM with 2 μl Cell Tox, 2 μl MT and 2 μl MT. 20 μl of the resuspended CD45^+ cells was then plated in each well which will contain an immunotherapy treatment.
(§4) The supernatant was removed from the CD45^−falcon tube, and the CD45^−cells contacted with 100 μl of FcR block and 100 μl of CD326 (EpCAM) MicroBeads, followed by incubation at […] 4° C. for 30 minutes. The CD45^−cells were then processed using an AutoMACS machine to separate the EpCAM positive and negative cells into 2 separate falcon tubes. The EpCAM-cells were discarded. The supernatant was removed from the EpCAM^+ cells, and the cells resuspended in DMEM with 2 μl Cell Tox, 2 μl MT and 2 μl MT. 20 μl of the resuspended pellet was then added to all sample wells excluding a blank. After all wells are added to, a cell count was conducted on the […] to determine the number of circulating tumour cells (CTCs).
(§5) The different cell types were each divided equally into populations, depending on the number of drugs/concentrations to be tested and plated on a cell-culture plate pre-coated with a scaffold of polycaprolactone (PCL) electrospun fibres and incubated at 37° C., 5% CO2, for 5 to (typically 10) minutes to facilitate cell attachment. After attachment, an initial imaging step was carried out using the RealTime-Glo™ MT assay from Promega (Catalogue No. G9711)) and the CellTox™ Green Cytotoxicity Assay (Promega, Catalogue No. G8741), carried out according to manufacturer's instructions. Following this initial imagining, the immunotherapeutic and/or chemotherapeutic agents were added to the cell populations as indicated below. After 10 minutes, the imagining step was repeated. The cell populations were then incubated at 37° C., 5% CO2 for 48 hours. The imaging step was then repeated. The cell populations were then re-dosed with the same immunotherapeutic and/or chemotherapeutic agents as indicated below, and incubated at 37° C., 5% CO2 for a further 48 hours. After this second 48 hour incubation, the imagining step was repeated for a final time.
(§6) At the end of this culture period, dose response scores were calculated using a normalized drug response metric as described in Gupta et al. (Communications Biology volume 3, Article number: 42 (2020), https://doi.org/10.1038/s42003-020-0765-z). The start readout for a given immunotherapeutic or chemotherapeutic agent at a given concentration was the to readout for said immunotherapeutic or chemotherapeutic agent at a specified concentration. The end readout for a given immunotherapeutic or chemotherapeutic agent at a given concentration was the final timepoint reading (t96h) for said immunotherapeutic or chemotherapeutic agent at a specified concentration.
(§7) The positive control start readout for a given drug/concentration was the to readout for the corresponding drug at a specified concentration. The positive control end readout for the corresponding drug at a specified concentration was the final timepoint reading (t96h) for the corresponding blank well.
(§8) The negative control start and end readouts for a given immunotherapeutic or chemotherapeutic agent at a given concentration were the to and final timepoint reading (t96h) respectively for blank cell or blank immuno cell well respectively.
(§9) The sensitivity or resistance of a subject's cancer to a given immunotherapeutic or chemotherapeutic agent was determined based on the calculated drug response score as shown in Table 2. […]

[2] = test system: Circulating Tumour Cells (CTCs) from a patient with lung cancer (adenocarcinoma); assay: Drug response score assay on CTCs (with CD45+ cells for immunotherapy) from blood, Example 5; settings: lung cancer CTCs; for Drug sensitivity as calculated by the assay (interpretation of Drug Response Scores): Table 17
Protocol: as §1, §2, §3, §4, §5, §6, §7, §8, §9

[3] = test system: Circulating Tumour Cells (CTCs) from a patient with head and neck cancer (squamous cell carcinoma); assay: Drug response score assay on CTCs from blood, Example 6
Protocol: as §1, §2, §4, §5, §6, §7, §8
The sensitivity or resistance of a subject's cancer to a given immunotherapeutic or chemotherapeutic agent was determined based on the calculated drug response score as shown in Table 2.
Blood samples from a patient with head and neck cancer (squamous cell carcinoma) were received on 11 Mar. 2022 and tested using a 7 drug panel.

[4] = test system: cancer cells derived from the tissue sample of a patient with osteosarcoma; assay: Drug response score assay on tissue sample, Example 10; settings: osteosarcoma tissue sample
Protocol: (§10) Where a tissue sample was provided by each subject, cancer stem cells (CSCs, CD133^+), were isolated from said sample. Tumour marker cells were further isolated from each tissue sample. The remaining cells were designated tumour marker^+ cells.
(§11) First, disaggregation of the tissue samples was carried out. Disaggregation was dependent on the size of the tissue sample and the method of retrieval: • EBUS (Endobronchial Ultrasound Scan and Biopsy)—very small fragments of tissue in solution-spun at 1200 rpm for 5 minutes to collect tissue pellet • Bronchoscopy-larger fragments with larger amount of blood vessels • Broncho-lavage-similar to EBUS, spun at 1200 rpm for 5 minutes to collet tissue pellet
(§12) Once a pellet of tissue obtained, DMEM added to the tissue pellet and the material forced through a […] Smart strainer. Once a cell suspension was achieved, this was spun at 1200 rpm for 5 minutes and the supernatant removed. The cells were then resuspended to a volume of 60 μl.
(§13) 20 μl of FcR block and 20 μl of CD133 microbeads were added to the resuspended cells, followed by incubation for 15 minutes at 4° C. The cells were then processed using an AutoMACS machine. This separates the […] into CD133^+ and CD133^− cells in 2 separate falcons. The falcon tubes are then centrifuged at 1200 rpm for 5 minutes.
(§14) The supernatant was removed from the CD133+falcon tube, and the cells resuspended in DMEM with 2 μl Cell Tox, 2 μl MT and 2 μl MT. 20 μl of the resuspended […] was then plated in each well which will contain an immunotherapy treatment.
(§15) The supernatant was removed from the CD133^− falcon tube, and the CD133^− cells contacted with 40 μl of a tumour separation microbeads cocktail containing microbeads bound to anti-CD31, anti-CD45, anti-Glycophorin-A (Gly-A) and an anti-fibroblast antibody.
(§16) This cocktail is used to separate out tumour marker cells using MACS, by separating out CD31^+, CD45^+ and Gly-A^+ cells. In addition, anti-fibroblast antibody-labelled beads are also used. The cocktail is added to the CD133^− falcon tube, followed by incubation for 15 minutes at 4° C. MACS is carried out using an AutoMACS machine. This cells which are not bound by the CD31, CD45, Gly-A and anti-fibroblast antibody beads are the tumour marker^+ cells.
as §5
(§17) At the end of this culture period, dose response scores were calculated using a normalized drug response metric as described in Gupta et al. (Communications Biology volume 3, Article number: 42 (2020), https://doi.org/10.1038/s42003-020-0765-z). The start readout for a given immunotherapeutic or chemotherapeutic agent at a given concentration was the to readout for said immunotherapeutic or chemotherapeutic agent at a specified concentration. […]

[5] = test system: Circulating tumour cells (CTCs) from a patient with GI cancer (Cholangio Carcinoma, stage 4); assay: Drug response score assay on blood sample, Example 9
Protocol: as §1, §2, §3, §4, §5, §6, §7, §8, §9

[6] = test system: Cancer Cells from tissue sample (CSCs, tumour marker+ cells) of a patient with GI cancer (Cholangio Carcinoma, stage 4); assay: Drug response score assay on tissue sample, Example 9
Protocol: as §10, §11, §12, §13, §14, §15, §16, §5, §17

Compound: CNC(=O)c1cc(Oc2ccc(NC(=O)Nc3ccc(Cl)c(C(F)(F)F)c3)c(F)c2)ccn1 [Regorafinib]
- Drug response score, conc. 1 ([1]; conc. 1: Pembro 20 μg/ml, Nivo 20 μg/ml (CTCs + CD45+ cells), Lenva 50 ng/ml, Regor 60 μg/ml (CTCs), t96h): 0.9681
- Drug response score, conc. 2 ([1]; conc. 2: Pembro 40 μg/ml, Nivo 40 μg/ml (CTCs + CD45+ cells), Lenva 100 ng/ml, Regor 80 μg/ml (CTCs), t96h): 0.9212
- Drug response score, conc. 3 ([1]; conc. 3: Pembro 100 μg/ml, Nivo 80 μg/ml (CTCs + CD45+ cells), Lenva 200 ng/ml, Regor 120 μg/ml (CTCs), t96h): 0.7424
- Drug response score, conc. 4 ([1]; conc. 4: Pembro 160 μg/ml, Nivo 160 μg/ml (CTCs + CD45+ cells), Lenva 400 ng/ml, Regor 160 μg/ml (CTCs), t96h): −0.7024
- effectiveness on Circulating Tumour Cells under laboratory conditions ([1]; rectal cancer CTCs): Sensitive S+
- Drug sensitivity as calculated by the assay (interpretation of Drug Response Scores) ([1]; rectal cancer CTCs, Table 11): Sensitive (S+)

Compound: CN(Cc1cnc2nc(N)nc(N)c2n1)c1ccc(C(=O)N[C@@H](CCC(=O)O)C(=O)O)cc1 [Methotrexate]
- Drug sensitivity as calculated by the assay (interpretation of Drug Response Scores) [2]: S++
- Drug response score, conc. 1 ([3]; conc. 1: Ifos 0.125 μg/ml, Gemcit 2 μg/ml, Doxo 10 ng/ml, Etop 1 μg/ml, Metho 0.5 μg/ml, Capecit 200 μg/ml, Vinor 20 μg/ml, CTCs, t96h): 0.9711
- Drug response score, conc. 2 ([3]; conc. 2: Ifos 0.25 μg/ml, Gemcit 10 μg/ml, Doxo 30 ng/ml, Etop 4 μg/ml, Metho 1 μg/ml, Capecit 300 μg/ml, Vinor 40 μg/ml, CTCs, t96h): 0.9988
- Drug response score, conc. 3 ([3]; conc. 3: Ifos 5 μg/ml, Gemcit 20 μg/ml, Doxo 90 ng/ml, Etop 20 μg/ml, Metho 2 μg/ml, Capecit 400 μg/ml, Vinor 80 μg/ml, CTCs, t96h): 1.0559
- Drug response score, conc. 4 ([3]; conc. 4: Ifos 10 μg/ml, Gemcit 40 μg/ml, Doxo 270 ng/ml, Etop 100 μg/ml, Metho 4 μg/ml, Capecit 600 μg/ml, Vinor 200 μg/ml, CTCs, t96h): 0.7375
- effectiveness on Circulating Tumour Cells under laboratory conditions ([3]; head and neck cancer CTCs): not effective
- Drug sensitivity as calculated by the assay (interpretation of Drug Response Scores) ([3]; head and neck cancer CTCs, Table 20): Resistant

Compound: C[C@@H](Oc1cc(-c2cnn(C3CCNCC3)c2)cnc1N)c1c(Cl)ccc(F)c1Cl [Crizotinib]
- effectiveness on Circulating Tumour Cells (CTCs) under laboratory conditions [2]: marginally more effective than other agents
- Drug sensitivity as calculated by the assay (interpretation of Drug Response Scores) [2]: S++

Compound: C#Cc1cccc(Nc2ncnc3cc(OCCOC)c(OCCOC)cc23)c1 [Erlotinib]
- effectiveness on Circulating Tumour Cells (CTCs) under laboratory conditions [2]: relatively less effective compared rest of the agents
- Drug sensitivity as calculated by the assay (interpretation of Drug Response Scores) [2]: S+

Compound: COc1cc2ncnc(Nc3ccc(F)c(Cl)c3)c2cc1OCCCN1CCOCC1 [Gefitinib]
- effectiveness on Circulating Tumour Cells (CTCs) under laboratory conditions [2]: relatively less effective compared rest of the agents
- Drug sensitivity as calculated by the assay (interpretation of Drug Response Scores) [2]: S+

Compound: CCc1c2c(nc3ccc(OC(=O)N4CCC(N5CCCCC5)CC4)cc13)-c1cc3c(c(=O)n1C2)COC(=O)[C@]3(O)CC [Irinotecan]
- effectiveness on the cancer cells derived from the tissue sample under laboratory conditions [4]: show effectiveness
- Drug sensitivity as calculated by the assay (interpretation of Drug Response Scores) ([4]; Table 33): Sensitive (S++)
- effectiveness on Circulating Tumour Cells under laboratory conditions ([5]; GI cancer (Cholangio Carcinoma) blood sample): S+
- Drug response score from blood sample, conc. 1 ([5]; conc. 1 of each drug as in Table 27, blood sample, t96h): 0.1974
- Drug response score from blood sample, conc. 2 ([5]; conc. 2 of each drug as in Table 27, blood sample, t96h): 0.3469
- Drug response score from blood sample, conc. 3 ([5]; conc. 3 of each drug as in Table 27, blood sample, t96h): 0.6197
- Drug response score from blood sample, conc. 4 ([5]; conc. 4 of each drug as in Table 27, blood sample, t96h): 0.5913
- Drug sensitivity as calculated by the assay, Blood ([5]; interpretation based on Drug Response Scores, blood sample): S+
- effectiveness on Cancer Cells from tissue sample under laboratory conditions ([6]; GI cancer (Cholangio Carcinoma) tissue sample): S+
- Drug sensitivity as calculated by the assay, Tissue ([6]; interpretation based on Drug Response Scores, tissue sample): S+
- Drug response score, conc. 1 ([6]; tissue sample, conc. 1 per Table 27B: Pem 20, Niv 20, Atez 100, Pacli 0.05, Irino 5, Beva 1 μg/ml, Len 50, 5-FU 250 ng/ml): 0.887
- Drug response score, conc. 2 ([6]; tissue sample, conc. 2 per Table 27B: Pem 40, Niv 40, Atez 200, Pacli 0.1, Irino 10, Beva 2 μg/ml, Len 100, 5-FU 500 ng/ml): 0.9135
- Drug response score, conc. 3 ([6]; tissue sample, conc. 3 per Table 27B: Pem 100, Niv 80, Atez 400, Pacli 0.2, Irino 25, Beva 4 μg/ml, Len 200, 5-FU 1000 ng/ml): 0.8742
- Drug response score, conc. 4 ([6]; tissue sample, conc. 4 per Table 27B: Pem 160, Niv 160, Atez 800, Pacli 1, Irino 50, Beva 8 μg/ml, Len 400, 5-FU 2000 ng/ml): 0.8612
